Common to all, as to format: biochemical
The target in assay [1] is T1, PaerAzoR (Pseudomonas aeruginosa, UniProt Q9I5F3).
T1 construct: gene azoR1; codon-optimised gene in pET-24a(+); cell-free synthesis (PUREfrex2.0), unpurified
T1 sequence (Q9I5F3 1-212): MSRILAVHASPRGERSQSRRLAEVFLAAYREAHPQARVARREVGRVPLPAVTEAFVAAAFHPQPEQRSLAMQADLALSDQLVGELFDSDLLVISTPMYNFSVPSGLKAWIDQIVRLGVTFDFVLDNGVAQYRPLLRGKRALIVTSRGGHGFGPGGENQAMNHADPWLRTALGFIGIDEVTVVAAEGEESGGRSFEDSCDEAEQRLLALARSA
In words: methyl red degradation at […] nm with BNAH as electron donor, reconstituted cell-free (PURE) mix. The note with it: 30 uM methyl red; 150 uM BNAH; 50 uM FMN; 100 mM sodium phosphate pH 6; 25 °C.

For assay [2], the target named is T2, StypAzoR (Salmonella enterica, UniProt P63462).
T2 construct: gene azoR; codon-optimised gene in pET-24a(+); cell-free synthesis (PUREfrex2.0), unpurified
T2 sequence (P63462 2-201): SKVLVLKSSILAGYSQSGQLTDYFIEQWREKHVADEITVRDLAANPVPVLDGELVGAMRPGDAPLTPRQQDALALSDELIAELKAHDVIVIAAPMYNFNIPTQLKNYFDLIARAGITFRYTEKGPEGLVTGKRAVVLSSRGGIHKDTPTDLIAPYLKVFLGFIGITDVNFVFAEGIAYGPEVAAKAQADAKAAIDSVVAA
In words: Brilliant Black degradation at […] nm, reconstituted cell-free (PURE) mix. The note with it: 150 uM NADH; 50 uM FMN; 100 mM sodium phosphate pH 6; 25 °C; 30 uM dye.

Assay [3] concerns the target T3, RferAzoR (Rhodoferax ferrireducens, UniProt Q220J4).
T3 construct: gene azoR; codon-optimised gene in pET-24a(+); cell-free synthesis (PUREfrex2.0), unpurified
T3 sequence (Q220J4 1-203): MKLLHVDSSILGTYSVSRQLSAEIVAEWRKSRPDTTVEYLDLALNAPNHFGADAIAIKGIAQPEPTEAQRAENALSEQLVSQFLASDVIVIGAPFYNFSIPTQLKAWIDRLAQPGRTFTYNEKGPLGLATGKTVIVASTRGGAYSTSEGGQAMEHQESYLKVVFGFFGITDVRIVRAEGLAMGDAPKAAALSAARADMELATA
The assay is described as above. Particulars: 150 uM NADH; 50 uM FMN; 100 mM sodium phosphate pH 6; 25 °C; 30 uM dye.

Assay [4] deals with T4, TvarAzoR (Trichormus variabilis, UniProt Q3M1N6).
T4 construct: gene azoR1; codon-optimised gene in pET-24a(+); cell-free synthesis (PUREfrex2.0), unpurified
T4 sequence (Q3M1N6 1-207): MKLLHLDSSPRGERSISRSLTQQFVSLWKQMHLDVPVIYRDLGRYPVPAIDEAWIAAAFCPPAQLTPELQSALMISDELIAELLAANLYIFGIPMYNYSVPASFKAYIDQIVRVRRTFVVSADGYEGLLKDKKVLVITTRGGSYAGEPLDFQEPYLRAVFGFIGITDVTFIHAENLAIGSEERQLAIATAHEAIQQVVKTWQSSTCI
The description is as above. Particulars: 150 uM NADH; 50 uM FMN; 100 mM sodium phosphate pH 6; 25 °C; 30 uM dye.

For assay [5], the target named is T5, RopaAzoR (Rhodococcus opacus, UniProt A0A1B1KJ01).
T5 construct: gene azoR; cell-free synthesis (PUREfrex2.0), unpurified
T5 sequence (A0A1B1KJ01 1-214): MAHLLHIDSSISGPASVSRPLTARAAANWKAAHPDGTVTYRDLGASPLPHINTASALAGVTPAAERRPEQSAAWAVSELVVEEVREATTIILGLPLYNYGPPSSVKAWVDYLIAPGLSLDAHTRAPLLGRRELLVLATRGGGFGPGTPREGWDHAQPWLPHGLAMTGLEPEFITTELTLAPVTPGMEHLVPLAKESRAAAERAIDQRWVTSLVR
The assay is described as above. The note with it: 150 uM NADH; 50 uM FMN; 100 mM sodium phosphate pH 6; 25 °C; 30 uM dye.

Assay [6] deals with T6, EfaeAzoR (Enterococcus faecalis, UniProt Q831B2).
T6 construct: gene azoR; codon-optimised gene in pET-24a(+); cell-free synthesis (PUREfrex2.0), unpurified
T6 sequence (Q831B2 whole entry): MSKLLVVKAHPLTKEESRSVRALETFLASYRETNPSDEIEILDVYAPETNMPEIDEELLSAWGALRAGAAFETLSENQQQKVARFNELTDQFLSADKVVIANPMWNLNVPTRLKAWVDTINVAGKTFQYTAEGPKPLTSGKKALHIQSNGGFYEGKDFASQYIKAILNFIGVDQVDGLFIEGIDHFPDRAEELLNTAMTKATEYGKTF
In words: methyl red degradation at […] nm with NADH as electron donor, reconstituted cell-free (PURE) mix. Particulars: 30 uM methyl red; 150 uM NADH; 50 uM FMN; 100 mM sodium phosphate pH 6; 25 °C.

In assay [7] the target is T6, EfaeAzoR. In words: methyl red degradation at […] nm, reconstituted cell-free (PURE) mix. The note with it: 150 uM NADH, NADPH or BNAH; 50 uM FMN; 100 mM sodium phosphate pH 6; 25 °C; 30 uM dye.
Assay [8] deals with T5, RopaAzoR. The assay is described as above. The note with it: 150 uM NADH; 50 uM FMN; 100 mM sodium phosphate pH 6; 25 °C; 30 uM dye.
The target in assay [9] is T1, PaerAzoR. The assay is described as above. The note with it: 150 uM BNAH; 50 uM FMN; 100 mM sodium phosphate pH 6; 25 °C; 30 uM dye.
Assay [10] concerns the target T2, StypAzoR. The description is as above. The note with it: 150 uM NADH, NADPH or BNAH; 50 uM FMN; 100 mM sodium phosphate pH 6; 25 °C; 30 uM dye.
The target of assay [11] is T4, TvarAzoR. The assay is described as above. The note with it: 150 uM NADH, NADPH or BNAH; 50 uM FMN; 100 mM sodium phosphate pH 6; 25 °C; 30 uM dye.
For assay [12], the target named is T3, RferAzoR. The description is as above. Particulars: 150 uM NADH, NADPH or BNAH; 50 uM FMN; 100 mM sodium phosphate pH 6; 25 °C; 30 uM dye.

SMILES strings stand for the structures.

Regarding `NC(=O)C1=CN(Cc2ccccc2)C=CC1` [BNAH, 1‐benzyl‐1,4‐dihydronicotinamide], the “methyl red degradation at 430 nm with BNAH as electron donor, reconstituted cell” value on PaerAzoR [1] is listed as “PaerAzoR catalyzed the degradation of methyl red using BNAH as co‐substrate”.

As to `CC(=O)Nc1ccc(S(=O)(=O)O)c2cc(S(=O)(=O)O)c(N=Nc3ccc(N=Nc4ccc(S(=O)(=O)O)cc4)c4ccc(S(=O)(=O)O)cc34)c(O)c12` [Brilliant Black], the “Brilliant Black degradation at 570 nm, reconstituted cell-free (PURE) mix” value on StypAzoR [2] was “All five enzymes and RopaAzoR were able to degrade BB”; at RferAzoR [3], “All five enzymes and RopaAzoR were able to degrade BB”; at TvarAzoR [4], “All five enzymes and RopaAzoR were able to degrade BB”; on RopaAzoR [5], “All five enzymes and RopaAzoR were able to degrade BB”.

Take `NC(=O)C1=CN([C@@H]2O[C@H](COP(=O)(O)OP(=O)(O)OC[C@H]3O[C@@H](n4cnc5c(N)ncnc54)[C@H](O)[C@@H]3O)[C@@H](O)[C@H]2O)C=CC1` [NADH]: the “methyl red degradation at 430 nm with NADH as electron donor, reconstituted cell” value on EfaeAzoR [6] was “EfaeAzoR seems to have a strong preference for NADH”.

`CN(C)c1ccc(/N=N/c2ccccc2C(=O)O)cc1` [methyl red]: the “methyl red degradation at 430 nm, reconstituted cell-free (PURE) mix” value on EfaeAzoR [7] is “Noteworthy are the very high activities of StypAzoR and EfaeAzoR”; on RopaAzoR [8], “active RopaAzoR was synthesized, and substrate degradation was detected in the activity assay”; on PaerAzoR [9] it was “PaerAzoR catalyzed the degradation of methyl red using BNAH as co‐substrate”; on StypAzoR [10] it was “all undescribed enzymes catalyzed the degradation of methyl red”; on TvarAzoR [11] it was “all undescribed enzymes catalyzed the degradation of methyl red”; at RferAzoR [12] it was “all undescribed enzymes catalyzed the degradation of methyl red”.
